In ChEMBL document CHEMBL3045193, “Synthesis and Herbicidal Activity of 1H-2, 3-Benzoxazine Derivatives” (J Pestic Sci, 2002):

How the values were obtained:
[1] = system: Echinochloa crus-galli; assay: Herbicidal activity against Echinochloa crus-galli (barnyard grass) assessed as killing at 2 kg/ha; type: functional
[2] = system: Digitaria ciliaris; assay: Herbicidal activity against Digitaria ciliaris assessed as killing at 2 kg/ha; type: functional
[3] = system: Amaranthus viridis; assay: Herbicidal activity against Amaranthus viridis assessed as killing at 2 kg/ha; type: functional
[4] = system: Persicaria lapathifolia; assay: Herbicidal activity against Persicaria lapathifolia assessed as killing at 2 kg/ha; type: functional
[5] = system: Glycine max; assay: Toxicity in Glycine max (soybean) assessed as killing at 2 kg/ha by crop selectivity assay; type: organism-based; details: in vivo
[6] = system: Amaranthus viridis; assay: Herbicidal activity against Amaranthus viridis assessed as killing at 1 kg/ha; type: functional
[7] = system: Gossypium hirsutum; assay: Toxicity in Gossypium hirsutum (cotton) assessed as killing at 1 kg/ha by crop selectivity assay; type: organism-based; details: in vivo
[8] = system: Digitaria ciliaris; assay: Herbicidal activity against Digitaria ciliaris assessed as killing at 1 kg/ha; type: functional
[9] = system: Triticum aestivum; assay: Toxicity in Triticum aestivum (wheat) plant assessed as killing at 2 kg/ha by crop selectivity assay; type: organism-based; details: in vivo
[10] = system: Echinochloa crus-galli; assay: Herbicidal activity against Echinochloa crus-galli (barnyard grass) assessed as killing at 1 kg/ha; type: functional
[11] = system: Glycine max; assay: Toxicity in Glycine max (soybean) assessed as killing at 1 kg/ha by crop selectivity assay; type: organism-based; details: in vivo
[12] = system: Persicaria lapathifolia; assay: Herbicidal activity against Persicaria lapathifolia assessed as killing at 1 kg/ha; type: functional
[13] = system: Gossypium hirsutum; assay: Toxicity in Gossypium hirsutum (cotton) assessed as killing at 2 kg/ha by crop selectivity assay; type: organism-based; details: in vivo
[14] = system: Triticum aestivum; assay: Toxicity in Triticum aestivum (wheat) plant assessed as killing at 1 kg/ha by crop selectivity assay; type: organism-based; details: in vivo

SMILES | Activity [1] [%] | Activity [2] [%] | Activity [3] [%] | Activity [4] [%] | further results
Fc1cc(C2=NOCc3ccccc32)ccc1Cl | 60 | 90 |  |  | 
Cn1ccnc1C1=NOCc2ccccc21 | 0 | 0 | 0 | 0 | 
Fc1ccc(C2=NOCc3ccccc32)cc1C(F)(F)F | 90 | 100 |  |  | 
Fc1ccc2c(c1)CON=C2c1ccc(F)c(Br)c1 | 20 | 100 |  |  | 
O=[N+]([O-])c1cccc(C2=NOCc3ccccc32)c1 | 40 | 60 |  |  | 
Fc1ccc2c(c1)C(c1ccc(F)c(Cl)c1)=NOC2 | 60 | 100 |  |  | 
Clc1ccc(C2=NOCc3ccccc32)cc1Cl | 80 | 100 |  |  | 
Clc1cc(Cl)cc(C2=NOCc3ccccc32)c1 | 0 | 0 |  |  | 
Fc1ccc2c(c1)C(c1ccc(F)c(Br)c1)=NOC2 | 100 | 100 | 100 | 80 | Activity [5]: 0%; Activity [6]: 80%; Activity [7]: 0%; Activity [8]: 100%; Activity [9]: 20%; Activity [10]: 100%; Activity [11]: 0%; Activity [12]: 60%; Activity [13]: 0%
Fc1ccc(C2=NOCc3cc(Cl)ccc32)cc1Cl | 0 | 60 |  |  | 
Clc1cccc(C2=NOCc3ccccc32)c1Cl | 0 | 0 |  |  | 
COc1cccc(C2=NOCc3ccccc32)c1 | 0 | 20 |  |  | 
Brc1cccc(C2=NOCc3ccccc32)c1 | 80 | 100 |  |  | 
N#Cc1cccc(C2=NOCc3ccccc32)c1 | 20 | 40 |  |  | 
CCCCCCCC(=O)Oc1c(I)cc(C#N)cc1I [IOXYNIL OCTANOATE] | 90 | 80 | 100 | 90 | Activity [5]: 20%; Activity [6]: 100%; Activity [7]: 0%; Activity [8]: 80%; Activity [9]: 0%; Activity [14]: 0%; Activity [10]: 80%; Activity [11]: 0%; Activity [12]: 90%; Activity [13]: 0%
Fc1ccc(C2=NOCc3ccccc32)cc1Br | 100 | 100 |  |  | 
Clc1cc(C2=NOCc3ccccc32)ccn1 | 80 | 60 | 60 | 60 | 
Fc1ccc2c(c1)CON=C2c1ccc(F)c(Cl)c1 | 50 | 100 |  |  | 

SMILES | Activity [1] [%] | Activity [2] [%] | Activity [3] [%] | Activity [4] [%] | further results
Cc1cc(C2=NOCc3ccccc32)no1 | 0 | 0 | 0 | 0 | 
Clc1ccc(C2=NOCc3ccccc32)s1 | 20 | 40 | 20 | 20 | 
FC(F)(F)c1cccc(C2=NOCc3ccccc32)c1 | 70 | 90 |  |  | 
Clc1ccc(Cl)c(C2=NOCc3ccccc32)c1 | 0 | 0 |  |  | 
Ic1cccc(C2=NOCc3ccccc32)c1 | 60 | 60 |  |  | 
Fc1ccc(C2=NOCc3ccccc32)cc1F | 80 | 80 |  |  | 
Fc1ccc(C2=NOCc3c(Cl)cccc32)cc1Cl | 0 | 0 |  |  | 
Fc1ccc(C2=NOCc3ccc(Cl)cc32)cc1Cl | 90 | 100 |  |  | 
Oc1cccc(C2=NOCc3ccccc32)c1 | 0 | 0 |  |  | 
Fc1ccc(C2=NOCc3ccccc32)cc1Cl | 100 | 100 | 90 | 100 | Activity [5]: 0%; Activity [6]: 80%; Activity [7]: 0%; Activity [8]: 100%; Activity [9]: 20%; Activity [10]: 100%; Activity [11]: 0%; Activity [12]: 100%; Activity [13]: 20%
Fc1ccc(C2=NOCc3c(F)cccc32)cc1Cl | 60 | 100 |  |  | 
Cc1cc(C2=NOCc3ccccc32)on1 | 0 | 0 | 0 | 0 | 
Clc1ccccc1C1=NOCc2ccccc21 | 0 | 0 | 0 | 0 | 
Clc1cccc(C2=NOCc3ccccc32)c1 | 90 | 100 | 60 | 60 | 
c1ccc(C2=NOCc3ccccc32)cc1 | 0 | 20 |  |  | 
Cc1cccc(C2=NOCc3ccccc32)c1 | 40 | 60 |  |  | 
Clc1ccc(C2=NOCc3ccccc32)cc1 | 40 | 20 | 20 | 0 | 
Fc1cccc(C2=NOCc3ccccc32)c1 | 20 | 60 |  |  | 
